Measurements reported in PMC9221443, “Peptidomimetics Based on C-Terminus of Blm10 Stimulate Human 20S Proteasome Activity and Promote Degradation of Proteins” (Biomolecules, 2022).
Each block holds one molecule with its values, some of them ahead of it.

How the values were obtained:
[1] = tested on: ChT-L peptidase of proteasome in HEK293T cell extracts; assay: Proteasome ChT-L activity in HEK293T cell lysates; assay type: biochemical, human; conditions: 1 µM; HEK293T lysate 20 µg/mL protein; 100 µM Suc-LLVY-AMC
Protocol: Human embryonic kidney cells (HEK293T) were maintained in Dulbecco’s Modified Eagle Medium (DMEM) supplemented with 10% Fetal Bovine Serum and penicillin/streptomycin (100 units/mL/100 µg/mL), at 37 °C with 5% CO2. Cells were grown in a T-75 flask to ~80% confluency and then were lysed using Reporter Lysis Buffer (Promega, Madison, WI, USA) and the manufacturer’s protocol. Protein content was measured using BCA assay. Stock solutions of the fluorogenic substrate (Suc-LLVY-AMC) and the tested peptidomimetics were prepared in dimethyl sulfoxide (DMSO). Potential activators were tested in the following concentrations: 1, 5, 10, 25 and 50 μM. The final DMSO concentration was kept constant at 2%. The activity assays were performed analogously to those described in the proteasome activity assays subsection, in the 96-well plate format in 50 mM Tris-HCl buffer, pH 8.0, using a 100 μL reaction volume. The final concentration of the fluorogenic substrate and cell lysate proteins were: 100 μM and 20 µg/mL, respectively. As a negative control, 1 μM bortezomib solution was used.

20S proteasome (h20S) = assay: Microscale thermophoresis (MST) protein-proteasome interaction; assay type: binding, human; conditions: NT-647-labeled protein titrated with h20S 0.06-1965 nM, 22 °C, 20 mM Tris-HCl pH 7.2, three independent experiments
Protocol: Enolase, α-synuclein and their oxidized forms were labeled using Monolith Protein Labeling Kit RED-NHS 2nd Generation Amine Reactive, NT-647 (Nanotemper, München, Germany), according to the manufacturer instructions. The labeling process was carried out in 50 mM HEPES buffer, pH 7.4, in the protein:NT-647 1:2 ratio. The incubation time was 60 min for enolase and 30 min for α-synuclein, at 21 °C. After labeling, the excess of the fluorescent reagent was removed using the columns provided by the manufacturer and 20 mM Tris-HCl buffer, pH 7.2, containing 200 mM NaCl and 10% glycerol. The obtained labeled proteins were concentrated on Amicon 3K spin-columns (Merck, Darmstadt, Germany). Protein concentrations were determined by measuring absorbance at 280 nm, using UV/Vis spectrophotometer (DU®730 Beckman Coulter).
Direct interactions between the fluorescently labeled, native and oxidized, proteins and the 20S proteasome were examined using microscale thermophoresis (NanoTemper Monolith NT.115). The labeled protein concentration was kept constant at 250 nM for native and oxidized α-synuclein and 125 nM and 25 nM for native and oxidized enolase, respectively. […] The EC50 values were calculated based on results obtained in three independent experiments.

Molecule: CC(C)C[C@H](NC(=O)[C@H](Cc1ccccc1)NC(=O)c1cnccn1)B(O)O [bortezomib]
degradation of Suc-LLVY-AMC substrate in cell extracts (negative control) [1]: completely blocked

EC50 (20S proteasome (h20S); read-out: EC50 of binding to 20S proteasome (MST, Hill fit)): 0.0323 ± 0.0013 µM
Molecule: α-synuclein

EC50 of binding to 20S proteasome (MST, Hill fit) (20S proteasome (h20S)): did not bind
Molecule: enolase: native human enolase 2, 434-residue thermolabile protein, model substrate
